Tests used:
[1] = test system: Leptosphaeria nodorum (LEPTNO); assay: In vitro fungitoxicity of hydrazones with and without copper towards Leptosphaeria nodorum (Example 26); type: cell-based; details: compound 0.05 μg/mL, 72 h at 25° C.
Phytophthora capsici = assay: In vitro fungitoxicity of hydrazones with and without copper towards Phytophthora capsici (Example 28, Table 3); type: cell-based; details: 0.050 μg/mL, 48 h
Phytophthora infestans = type: in vivo, Phytophthora infestans on tomato; details: hydrazone 50 ppm + 50 μM CuCl2.2H2O, applied 24 h before inoculation, assessed 7 days after inoculation, tomato

## O=C(N/N=C/c1cc(Cl)cc(Cl)c1O)c1ccccc1 [Example 16]
[1]; Parastagonospora nodorum, 72 h, copper-minus medium, read-out: LEPTNO % Inhn. Minus Copper Observed
  inhibition of growth at 0.05 µg/mL: 0%
[1]; copper-plus medium (CuCl2.2H2O)
  LEPTNO % Inhn. Plus Copper Observed: 97.1%
Phytophthora capsici; copper-plus AS medium (CuCl2, 50 μM)
  % Inhn Plus copper Observed: 91.9%
Phytophthora capsici; Phytophthora capsici, copper-minus AS medium, read-out: % Inhn Minus copper Observed
  inhibition of growth at 0.05 µg/mL: 0%
Phytophthora infestans
  TLB % Control: 94.0%

From patent publication US20120010075A1 (priority 2009, published 2012)
